In data set [1] the test system is SSTRs, NCI-H69 membranes. The data set is described as follows: [125I]SST-14 binding to NCI-H69 cell membranes (SSTR affinity). The arrangement: species or system human. To be noted: inhibition of [125I]SST-14 binding, two-site fit. On the procedure:
[^125I-Tyr^11] somatostatin-14 ([^125I]SST-14) was obtained from Amersham. Unlabeled somatostatin-14 was purchased either from BACHEM (Torrance, Calif.) or from Sigma Chemical Co. (St. Louis, Mo.). Protease inhibitors, leupeptin, aprotinin, bacitracin, and benzamidine and other reagents were obtained from Sigma. Protease inhibitors were prepared in dimethylsulfoxide (DMSO) at a concentration 500×higher than the final assay concentration. The prepared protease solution was stored at −20° C. and diluted with the buffer solution before use.
Membrane preparations used in these studies were prepared from two commercially available tumor cell lines, the human small cell lung cancer cell line, NCI-H69, and the rat pancreatic tumor cell line, AR42J, obtained from American Type Culture Collection (ATCC) (Manassas, Va.). NCI-H69 cells were maintained by serial passage in RPMI 1640 with 10% fetal calf serum. AR42J cells were maintained in F-12K medium containing 20% fetal calf serum. Cells in culture flasks were incubated at 37° C. with 5% CO2 in air atmosphere following the recommendations of the “Product Sheet” from ATCC.
Cultured cells were first detached from plates with phosphate-buffered saline, pH 7.4, containing 2 mM EDTA, and centrifuged at 1,500×g for 10 min. Cells were then resuspended in 5-10 mL of the homogenization buffer (1 mM sodium bicarbonate, pH 7.4, 1 mM EDTA, 1 mM EGTA, 2.5 mM DTT, 5 μg/mL leupeptin, 5 μg/mL aprotinin, 100 μg/mL bacitracin, 100 μg/mL benzamidine) for 10 min on ice. The cells were lysed for 30 sec twice in a polytron with a setting at 5. The lysate was centrifuged at 1,000×g for 10 min at 4° C. The supernatant was centrifuged at 40,000×g for 20 min at 4° C. This step was repeated twice with the homogenization buffer in the absence of protease inhibitors. The pellet was then resuspended at 1-5 mg membrane protein/mL in 25 mM Tris, pH 7.4 without the addition of protease inhibitors and the membranes were stored at −80° C. before use. Membrane protein concentration was determined spectroscopically using the bicinchonic acid (BCA) protein assay kit (Pierce Chemical Inc. (Rockford, Ill.).
All [^125I]SST-14 binding assays were performed in 0.5 mL binding buffer containing 50 mM HEPES, pH 7.5, 10 mM MgCl2, 0.25% BSA (w/v) containing protease inhibitors (same as above) and incubated at 37° C. for 45 minutes. After incubation, samples were kept at 4° C. and rapidly filtered under vacuum through a Whatman GF/B glass fiber filter with a 12-well harvester (Skatron Instruments Inc., Sterling, Va.). The filter was washed for 9 seconds with cold 50 mM HEPES, pH 7.5, 10 mM MgCl2, 0.25% BSA (w/v). Thirty-five […] of [^125I]SST-14 from Amersham was used in each tube. Peptides were solubilized in DMSO and serially diluted with DMSO. Five μL of peptide in DMSO was used to obtain the final concentration. DMSO (5 μL) was added to the tube without the addition of any peptide or unlabeled SST-14, so that each tube contained 1% DMSO. Non-specific binding was defined as the binding of [^125I]SST-14 which was not displaceable with an excess of unlabeled SST-14 at a concentration of 1×10^−6 M. The bound [^125I]SST-14 without or with excess unlabeled SST-14 (1×10^−6 M) was defined as total binding and nonspecific binding, respectively. The difference between total and nonspecific binding was defined as specific binding. The percent inhibition (% Inh) by peptide was expressed as
% Inh=(total binding−total binding in the presence of peptide)/specific binding×100%
Inclusion of protease inhibitors in homogenizing medium as well as assay buffer is essential to maintain the integrity of both [^125I]SST-14 and somatostatin analogs for the receptor binding assay and to obtain optimal specific binding. The highest specific binding was observed when MgCl2 (10 mM) was included. Membranes were finally resuspended in a sodium-free medium and receptor binding assays were performed in the absence of sodium ions. […]

The subject of data set [2] is AR42J tumor xenografts. The data set can be described thus: Biodistribution of 99mTc-labeled compounds in nude mice with AR42J tumor xenografts. It is filed as in vivo. The settings on record: 99mTc-labeled compound, 90 minutes post-injection; for TUMOR: i.v.; for T:B: tumor to blood ratio; for T:M: tumor to muscle ratio. As for the experimental part: Rat pancreatic AR42J cells (ATCC, Rockville, Md., USA) were grown in Modified Ham's F12K medium (Cat. No. N-3520, Sigma, St. Louis, Mo., USA) containing 20% fetal bovine serum (FCS) (Cat. No. 1224, Lot No. 9702058, Sigma, St. Louis, Mo., USA) under sterile conditions in 95% humidity and 5% CO2. At a density of approximately 10×10^6 cells per T150 flask, the cells were harvested with trypsin and collected by centrifugation at 2400 rpm (800×g) for 15 minutes in a benchtop centrifuge (IEC Centra-8 tabletop centrifuge, International Equipment Company, Needham, Mass., USA). The cells were resuspended in medium containing 20% FCS for implantation.
Six female nude mice (CrlLNU/NU-nuBR, 6-8 weeks old) were injected subcutaneously into the right flank with tumor cells (2×10^7/100 μL) in 20% matrigel (Collaborative Biomedical Products, Chicago, Ill., USA). Fourteen days after inoculation tumors were visible in all animals. Three weeks after inoculation, tumors were aseptically dissected, minced and implanted into 60 nude mice using a trochar. The tumor xenografts from the second passage were used for biodistribution studies.
A dose of approximately 50-100 μCi ^99mTc-labeled compound/mouse was injected intravenously in a total volume of 100 μL. Mice were sacrificed 90 minutes post-injection by decapitation and the trunk blood was collected. Tumors (1 to 3 per mouse), liver, gastrointestinal tract, kidneys, and samples of muscle from both legs (quadriceps femoralis) were collected, weighed, and counted for radioactivity.

The mark [3] stands for this setting: read-out: IC50 Values for Uncomplexed Compounds, NCI-H69 (first value).
Setting [4] is: read-out: IC50 Values for Uncomplexed Compounds, NCI-H69 (second value).

This note sets out measurements from patent US6358491B1, “Somatostatin analogs” (Berlex Laboratories, Inc., priority 1999, dated 2002).

Where two headings read alike, the source gives them in different places. Where a SMILES comes first, the peptide text is derived from it. [ ]: non-standard residue; d: D form. ξ: configuration not given here. NMehCys = CN[C@@H](CCS)C(=O)O; Thr(3ξ) = CC(O)[C@H](N)C(=O)O A value given as a limit tells only on which side of the number the result lay.

For the compound `C[C@@H](O)[C@@H]1NC(=O)[C@H](CCCCN)NC(=O)[C@@H](Cc2c[nH]c3ccccc23)NC(=O)[C@H](Cc2ccc(O)cc2)NC(=O)[C@H](CCSCC(=O)NC[C@H](N)C(=O)N[C@@H](CN)C(=O)N[C@@H](CS)C(=O)N[C@H](CO)[C@@H](C)O)N(C)C(=O)[C@H](Cc2ccccc2)NC1=O` [cyclo-Tyr-D-Trp-Les-Thr-Phe-(N—CH3)Hcy(CH2 CO-β-Dap-Dap-Cys-Thr(ol))], the IC50 in data set [1] (setting [3]) came out at 0.449 nM; in data set [1] (setting [4]), 46.8 nM.

`C[C@@H](O)[C@@H]1NC(=O)[C@H](CCCCN)NC(=O)[C@@H](Cc2c[nH]c3ccccc23)NC(=O)[C@H](Cc2ccc(O)cc2)NC(=O)[C@H](CCSCC(=O)N[C@@H](CO)C(=O)N[C@@H](CO)C(=O)N[C@@H](CS)C(=O)NCCOCCOCCN)N(C)C(=O)[C@H](Cc2ccccc2)NC1=O` [cyclo-Tyr-D-Trp-Lys-Thr-Phe-(N—CH3)Hcy(CH2 CO-Ser-Ser-Cys-NH(CH2 CH2 O)2 CH2 CH2 NH2)]: in data set [2], the TUMOR was found to be 10.6 %ID/g, the “T:B” value is given as 44 and the “T:M” value is given as 132. Besides, the IC50 in data set [1] (setting [3]) came out at 0.645 nM. For the same compound, in data set [1] (setting [4]), the IC50 was greater than 1000 nM.

For `C[C@@H](O)[C@H](NC(=O)CSCC[C@H]1C(=O)N[C@@H](Cc2ccc(O)cc2)C(=O)N[C@H](Cc2c[nH]c3ccccc23)C(=O)N[C@@H](CCCCN)C(=O)N[C@@H]([C@@H](C)O)C(=O)N[C@@H](Cc2ccccc2)C(=O)N1C)C(=O)NCC(=O)NCC(=O)N[C@@H](CS)C(N)=O` [cyclo-Tyr-D-Trp-Lys-Thr-Phe-(N—CH3)Hcy(CH2 CO-Thr-Gly-Gly-Cys-NH2)], in data set [2], the TUMOR is 3.81 %ID/g, the “T:B” value is 30 and the “T:M” value was 95. In addition, the IC50 in data set [1] (setting [3]) is 1.63 nM. The IC50 in data set [1] (setting [4]) stood at 24300 nM.

With `C[C@@H](O)[C@@H]1NC(=O)[C@H](CCCCN)NC(=O)[C@@H](Cc2c[nH]c3ccccc23)NC(=O)[C@H](Cc2ccc(O)cc2)NC(=O)[C@H](CCSCC(=O)NC[C@H](N)C(=O)N[C@@H](CCCNC(=N)N)C(=O)N[C@@H](CS)C(=O)N[C@H](CO)[C@@H](C)O)N(C)C(=O)[C@H](Cc2ccccc2)NC1=O` [cyclo-Tyr-D-Trp-Lys-Thr-Phe-(N—CH3)Hcy(CH2 CO-β-Dap-Arg-Cys-Thr(ol))], the IC50 in data set [1] (setting [3]) is 0.413 nM; in data set [1] (setting [4]), less than 0.001 nM.

With `C[C@@H](O)[C@@H]1NC(=O)[C@H](CCCCN)NC(=O)[C@@H](Cc2c[nH]c3ccccc23)NC(=O)[C@H](Cc2ccc(O)cc2)NC(=O)[C@H](CCSCC(=O)NC[C@H](N)C(=O)N[C@@H](CCN)C(=O)N[C@@H](CS)C(=O)N[C@H](CO)[C@@H](C)O)N(C)C(=O)[C@H](Cc2ccccc2)NC1=O` [cyclo-Tyr-D-Trp-Lys-Thr-Phe-(N—CH3)Hcy(CH2 CO-β-Dap-Dab-Cys-Thr(ol))], the IC50 was 0.642 nM in data set [1] (setting [3]) and greater than 1000 nM in data set [1] (setting [4]).

In the case of `C[C@@H](O)[C@H](NC(=O)[C@H](CS)NC(=O)[C@H](CCN)NC(=O)[C@@H](N)CNC(=O)CSCC[C@H]1C(=O)N[C@@H](Cc2ccc(O)cc2)C(=O)N[C@H](Cc2c[nH]c3ccccc23)C(=O)N[C@@H](CCCCN)C(=O)N[C@@H]([C@@H](C)O)C(=O)N[C@@H](Cc2ccccc2)C(=O)N1C)C(=O)O` [cyclo-Tyr-D-Trp-Lys-Thr-Phe-(N—CH3)Hcy(CH2 CO-β-Dap-Dab-Cys-Thr)], the IC50 in data set [1] (setting [3]) and in data set [1] (setting [4]) was 1.25 nM in each case.

In the case of `C[C@@H](O)[C@@H]1NC(=O)[C@H](CCCCN)NC(=O)[C@@H](Cc2c[nH]c3ccccc23)NC(=O)[C@H](Cc2ccc(O)cc2)NC(=O)[C@H](CCSCC(=O)NC[C@H](N)C(=O)N[C@@H](Cc2c[nH]cn2)C(=O)N[C@@H](CS)C(=O)N[C@H](CO)[C@@H](C)O)N(C)C(=O)[C@H](Cc2ccccc2)NC1=O` [cyclo-Tyr-D-Trp-Lys-Thr-Phe-(N—CH3)Hcy(CH2 CO-β-Dap-His-Cys-Thr(ol))], in data set [2], the TUMOR was determined as 15.5 %ID/g, the “T:B” value came to 29 and the “T:M” value is on record as 96. Also, in data set [1] (setting [3]), the half-maximal inhibitory concentration (IC50) came out at 0.861 nM.

As for `C[C@@H](O)[C@H](NC(=O)[C@H](CS)NC(=O)[C@H](Cc1ccc(N)cc1)NC(=O)[C@@H](N)CNC(=O)CSCC[C@H]1C(=O)N[C@@H](Cc2ccc(O)cc2)C(=O)N[C@H](Cc2c[nH]c3ccccc23)C(=O)N[C@@H](CCCCN)C(=O)N[C@@H]([C@@H](C)O)C(=O)N[C@@H](Cc2ccccc2)C(=O)N1C)C(=O)O` [cyclo-Tyr-D-Trp-Lys-Thr-Phe-(N—CH3)Hcy(CH2 CO-β-Dap-Phe(4-NH2)-Cys-Thr)], the IC50 in data set [1] (setting [3]) and in data set [1] (setting [4]) was 0.641 nM in each case.

Consider `C[C@@H](O)[C@@H]1NC(=O)[C@H](CCCCN)NC(=O)[C@@H](Cc2c[nH]c3ccccc23)NC(=O)[C@H](Cc2ccc(O)cc2)NC(=O)[C@H](CCSCC(=O)NCCC[C@H](N)C(=O)NCC(=O)N[C@@H](CS)C(N)=O)N(C)C(=O)[C@H](Cc2ccccc2)NC1=O` [cyclo-Tyr-D-Trp-Lys-Thr-Phe-(N—CH3)Hcy(CH2 CO-δ-Orn-Gly-Cys-NH2)], for which, in data set [2], the TUMOR was determined as 1.8 %ID/g, the “T:B” value is reported as 29 and the “T:M” value stood at 95.

`CC(O)[C@@H]1NC(=O)[C@H](CCCCN)NC(=O)[C@@H](Cc2c[nH]c3ccccc23)NC(=O)[C@H](Cc2ccc(O)cc2)NC(=O)[C@H](CCS)N(C)C(=O)[C@H](Cc2ccccc2)NC1=O` (stereo partly drawn) [cyclo-YWDKTF.(N—CH3).Hcy., cyclo-Tyr-D-Trp-Lys-Thr-Phe-(N—CH3)Hcy] (cyclo(F[NMehCys]Y[dW]K[Thr(3ξ)])): the concentration for half-maximal inhibition (IC50) in data set [1] (setting [3]) is 0.21 nM.

For `C[C@@H](O)[C@H](NC(=O)[C@H](CS)NC(=O)[C@H](Cc1ccc(N)cc1)NC(=O)[C@@H](N)CNC(=O)CSCC[C@H]1C(=O)N[C@@H](Cc2ccc(O)cc2)C(=O)N[C@H](Cc2c[nH]c3ccccc23)C(=O)N[C@@H](CCCCN)C(=O)N[C@@H]([C@@H](C)O)C(=O)N[C@@H](Cc2ccccc2)C(=O)N1C)C(=O)NC(CO)CO` [cyclo-YWDKTF.(N—CH3)Hcy(CH2CO.β-Dap.F(4-NH2).CT.S(ol))], the IC50 in data set [1] (setting [3]) and in data set [1] (setting [4]) was 0.388 nM throughout.

On to `CC(C)[C@@H]1NC(=O)[C@H](CCCCN)NC(=O)[C@@H](Cc2c[nH]c3ccccc23)NC(=O)[C@H](Cc2ccc(O)cc2)NC(=O)[C@H](CCS)N(C)C(=O)[C@H](Cc2ccccc2)NC1=O` [cyclo-YWDKVF.(N—CH3).Hcy.] (cyclo(Y[dW]KVF[NMehCys])), for which the IC50 in data set [1] (setting [3]) turned out to be 0.21 nM.
